Assay results from patent publication US12583884B2, “3beta-(benzyloxy)-17alpha-methyl-pregn-5-en-20-one for use in the treatment of cognitive disorders” (AELIS FARMA, priority 2018, dated 2026).
Like-named read-outs stand apart in the source and are kept apart here. Values belong to the compound of their own block, whether it stands above or below them.

Tests used:
Ca2+ channels Ca2+-L = test: CEREP binding profile: Ca2+-L; conditions: 10 μM
Description: (§1) The CEREP High-throughput profile consists of a broad collection of 80 transmembrane and soluble receptors, ion channels and G-Protein coupled receptors.

Angiotensin-II AT2 = molecular target: T1, Angiotensin-II AT2 (Homo sapiens, UniProt P50052); test: CEREP binding profile: AT2
T1 construct: CEREP
Description: as §1

Serotonin 5-HT3 = molecular target: T2, Serotonin 5-HT3 (Homo sapiens, UniProt P46098); test: CEREP binding profile: 5-HT3
T2 construct: CEREP
Description: as §1

Galanin GAL1 = Galanin GAL1 (Homo sapiens, UniProt P47211); test: CEREP binding profile: GAL1
Description: as §1

Melatonin MT1 (ML1A) = Melatonin MT1 (ML1A) (Homo sapiens, UniProt P48039); test: CEREP binding profile: MT1
Description: as §1

[1] = molecular target: T3, Vasoactive intestinal peptide VPAC1 (VIP1) (Homo sapiens, UniProt P32241); test: CEREP binding profile: VPAC1
T3 construct: CEREP (contract panel)
Description: as §1

Dopamine D4.4 = molecular target: T4, Dopamine D4.4 (Homo sapiens, UniProt P21917); test: CEREP binding profile: D4.4
T4 construct: CEREP
Description: as §1

Angiotensin-II AT1 = molecular target: T5, Angiotensin-II AT1 (Homo sapiens, UniProt P30556); test: CEREP binding profile: AT1
T5 construct: CEREP
Description: as §1

K+ channels SKCa = test: CEREP binding profile: SKCa; conditions: 10 μM
Description: as §1

Cannabinoid CB2 = molecular target: T6, Cannabinoid CB2 (Homo sapiens, UniProt P34972); test: Binding: CB2
T6 construct: CEREP
Description: as §1

[2] = test system: Steroid nuclear receptors ER; test: Binding: ER; conditions: 10 μM
Description: as §1

Na+ channels Na+-site 2 = test: CEREP binding profile: Na+-site 2; conditions: 10 μM
Description: as §1

Purinergic channels P2X = test: CEREP binding profile: P2X; conditions: 10 μM
Description: as §1

[3] = molecular target: T7, Benzodiazepine BZD (periph) (Rattus norvegicus, UniProt P16257); test: CEREP binding profile: BZD (periph)
T7 construct: CEREP (contract panel)
Description: as §1

Serotonin 5-HT6 = molecular target: T8, Serotonin 5-HT6 (Homo sapiens, UniProt P50406); test: CEREP binding profile: 5-HT6
T8 construct: CEREP (contract panel)
Description: as §1

Dopamine D2S = molecular target: T9, Dopamine D2S (Homo sapiens, UniProt P14416); test: CEREP binding profile: D2S
T9 construct: CEREP
Description: as §1

Muscarinic M5 = Muscarinic M5 (Homo sapiens, UniProt P08912); test: CEREP binding profile: M5
Description: as §1

Dopamine D3 = molecular target: T10, Dopamine D3 (Homo sapiens, UniProt P35462); test: CEREP binding profile: D3
T10 construct: CEREP
Description: as §1

Serotonin 5-HT2B = molecular target: T11, Serotonin 5-HT2B (Homo sapiens, UniProt P41595); test: CEREP binding profile: 5-HT2B
T11 construct: CEREP (contract panel)
Description: as §1

Adenosine A2A = molecular target: T12, Adenosine A2A (Homo sapiens, UniProt P29274); test: CEREP binding profile: A2A
T12 construct: CEREP
Description: as §1

Adrenergic alpha1 = test: CEREP binding profile: alpha1; conditions: 10 μM
Description: as §1

Serotonin 5-HT2C = molecular target: T13, Serotonin 5-HT2C (Homo sapiens, UniProt P28335); test: CEREP binding profile: 5-HT2C
T13 construct: CEREP (contract panel)
Description: as §1

[4] = molecular target: PXR (non-steroid nuclear receptor) (Homo sapiens, UniProt O75469); test: Binding: PXR
Description: as §1

Neurokinin NK1 = Neurokinin NK1 (Homo sapiens, UniProt P25103); test: CEREP binding profile: NK1
Description: as §1

[5] = molecular target: Opioid and opioid-like mu (MOP) (Homo sapiens, UniProt P35372); test: CEREP binding profile: mu; conditions: 10 μM
Description: as §1

Prostanoid IP (PGI2) = Prostanoid IP (PGI2) (Homo sapiens, UniProt P43119); test: CEREP binding profile: IP
Description: as §1

GABA Cl- channel = test: CEREP binding profile: Cl- channel; conditions: 10 μM
Description: as §1

[6] = molecular target: T14, Cholecystokinin CCK1 (CCKA) (Homo sapiens, UniProt P32238); test: CEREP binding profile: CCK1
T14 construct: CEREP
Description: as §1

Adrenergic beta2 = molecular target: T15, Adrenergic beta2 (Homo sapiens, UniProt P07550); test: CEREP binding profile: beta2
T15 construct: CEREP
Description: as §1

Growth factors PDGF = test: CEREP binding profile: PDGF; conditions: 10 μM
Description: as §1

Adrenergic alpha2 = test: CEREP binding profile: alpha2; conditions: 10 μM
Description: as §1

Chemokines CCR1 = molecular target: T16, Chemokines CCR1 (Homo sapiens, UniProt P32246); test: CEREP binding profile: CCR1
T16 construct: CEREP
Description: as §1

Histamine H1 = Histamine H1 (Homo sapiens, UniProt P35367); test: CEREP binding profile: H1
Description: as §1

Galanin GAL2 = Galanin GAL2 (Homo sapiens, UniProt O43603); test: CEREP binding profile: GAL2
Description: as §1

Endothelin ETB = molecular target: T17, Endothelin ETB (Homo sapiens, UniProt P24530); test: CEREP binding profile: ETB
T17 construct: CEREP
Description: as §1

Endothelin ETA = molecular target: T18, Endothelin ETA (Homo sapiens, UniProt P25101); test: CEREP binding profile: ETA
T18 construct: CEREP
Description: as §1

Prostanoid EP4 = Prostanoid EP4 (Homo sapiens, UniProt P35408); test: CEREP binding profile: EP4
Description: as §1

[7] = molecular target: Opioid and opioid-like kappa (KOP) (Rattus norvegicus, UniProt P34975); test: CEREP binding profile: kappa; conditions: 10 μM
Description: as §1

Glutamate PCP = test: CEREP binding profile: PCP; conditions: 10 μM
Description: as §1

GABA = test: CEREP binding profile: GABA; conditions: 10 μM
Description: as §1

Dopamine D5 = molecular target: T19, Dopamine D5 (Homo sapiens, UniProt P21918); test: CEREP binding profile: D5
T19 construct: CEREP
Description: as §1

Somatostatin sst = test: CEREP binding profile: sst; conditions: 10 μM
Description: as §1

Neurokinin NK2 = Neurokinin NK2 (Homo sapiens, UniProt P21452); test: CEREP binding profile: NK2
Description: as §1

[8] = molecular target: T20, Cholecystokinin CCK2 (CCKB) (Homo sapiens, UniProt P32239); test: CEREP binding profile: CCK2
T20 construct: CEREP
Description: as §1

Chain of Opioid and opioid-like mu (MOP) (P35372 whole entry): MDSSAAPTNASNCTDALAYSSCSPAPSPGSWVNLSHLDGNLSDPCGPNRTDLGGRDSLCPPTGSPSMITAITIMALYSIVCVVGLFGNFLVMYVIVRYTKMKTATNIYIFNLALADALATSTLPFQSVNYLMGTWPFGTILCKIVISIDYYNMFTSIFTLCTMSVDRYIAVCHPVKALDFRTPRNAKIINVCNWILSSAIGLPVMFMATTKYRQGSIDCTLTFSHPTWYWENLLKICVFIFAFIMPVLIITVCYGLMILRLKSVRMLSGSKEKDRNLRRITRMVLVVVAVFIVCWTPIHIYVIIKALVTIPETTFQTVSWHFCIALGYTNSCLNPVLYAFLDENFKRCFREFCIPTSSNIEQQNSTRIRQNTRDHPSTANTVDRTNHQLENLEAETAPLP
Chain of Prostanoid IP (PGI2) (P43119 whole entry): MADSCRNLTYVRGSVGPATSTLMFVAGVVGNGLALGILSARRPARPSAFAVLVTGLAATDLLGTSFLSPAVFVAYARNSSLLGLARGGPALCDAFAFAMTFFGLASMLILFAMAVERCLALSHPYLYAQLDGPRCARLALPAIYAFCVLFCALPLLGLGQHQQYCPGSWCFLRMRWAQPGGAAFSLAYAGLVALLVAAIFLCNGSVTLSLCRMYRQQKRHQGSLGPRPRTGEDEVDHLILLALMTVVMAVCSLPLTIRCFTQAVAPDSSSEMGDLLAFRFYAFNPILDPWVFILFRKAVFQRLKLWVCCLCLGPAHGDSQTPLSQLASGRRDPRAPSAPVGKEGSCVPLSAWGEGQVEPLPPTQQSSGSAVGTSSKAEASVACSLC
Chain of Histamine H1 (P35367 whole entry): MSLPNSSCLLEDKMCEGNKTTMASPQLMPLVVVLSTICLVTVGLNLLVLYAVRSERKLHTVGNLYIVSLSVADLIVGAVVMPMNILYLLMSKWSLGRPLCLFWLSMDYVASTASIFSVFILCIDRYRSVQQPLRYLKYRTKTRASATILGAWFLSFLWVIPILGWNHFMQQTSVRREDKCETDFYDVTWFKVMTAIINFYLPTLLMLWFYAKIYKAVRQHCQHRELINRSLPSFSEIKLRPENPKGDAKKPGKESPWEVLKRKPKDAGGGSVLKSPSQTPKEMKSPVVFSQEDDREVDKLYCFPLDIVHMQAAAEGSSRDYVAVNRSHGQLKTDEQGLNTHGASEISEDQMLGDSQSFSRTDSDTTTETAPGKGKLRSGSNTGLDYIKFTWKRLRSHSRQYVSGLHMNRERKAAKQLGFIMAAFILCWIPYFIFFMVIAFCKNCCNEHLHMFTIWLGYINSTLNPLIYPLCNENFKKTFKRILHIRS
T15 sequence (P07550 whole entry): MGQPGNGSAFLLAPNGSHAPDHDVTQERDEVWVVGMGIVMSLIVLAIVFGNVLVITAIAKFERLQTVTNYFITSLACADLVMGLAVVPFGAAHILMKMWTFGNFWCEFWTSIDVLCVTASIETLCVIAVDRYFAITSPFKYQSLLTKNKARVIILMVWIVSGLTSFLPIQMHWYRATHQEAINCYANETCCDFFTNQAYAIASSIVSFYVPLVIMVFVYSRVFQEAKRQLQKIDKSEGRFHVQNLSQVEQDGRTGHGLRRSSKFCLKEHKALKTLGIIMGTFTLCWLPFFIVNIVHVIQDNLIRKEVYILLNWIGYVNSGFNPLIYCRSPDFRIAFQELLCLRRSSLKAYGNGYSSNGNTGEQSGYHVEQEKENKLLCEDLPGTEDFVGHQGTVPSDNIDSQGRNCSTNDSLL
T8 sequence (P50406 whole entry): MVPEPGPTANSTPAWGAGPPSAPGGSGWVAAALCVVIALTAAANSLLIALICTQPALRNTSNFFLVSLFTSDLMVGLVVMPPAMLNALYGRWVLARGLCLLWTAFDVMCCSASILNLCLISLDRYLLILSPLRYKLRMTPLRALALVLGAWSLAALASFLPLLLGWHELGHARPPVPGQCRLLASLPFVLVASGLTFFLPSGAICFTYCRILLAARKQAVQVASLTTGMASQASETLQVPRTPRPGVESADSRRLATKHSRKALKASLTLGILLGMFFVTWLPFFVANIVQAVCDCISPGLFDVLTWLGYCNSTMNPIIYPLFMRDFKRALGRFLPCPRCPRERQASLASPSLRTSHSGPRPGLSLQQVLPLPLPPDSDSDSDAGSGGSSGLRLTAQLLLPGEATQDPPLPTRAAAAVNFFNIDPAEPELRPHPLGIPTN
T14 sequence (P32238 whole entry): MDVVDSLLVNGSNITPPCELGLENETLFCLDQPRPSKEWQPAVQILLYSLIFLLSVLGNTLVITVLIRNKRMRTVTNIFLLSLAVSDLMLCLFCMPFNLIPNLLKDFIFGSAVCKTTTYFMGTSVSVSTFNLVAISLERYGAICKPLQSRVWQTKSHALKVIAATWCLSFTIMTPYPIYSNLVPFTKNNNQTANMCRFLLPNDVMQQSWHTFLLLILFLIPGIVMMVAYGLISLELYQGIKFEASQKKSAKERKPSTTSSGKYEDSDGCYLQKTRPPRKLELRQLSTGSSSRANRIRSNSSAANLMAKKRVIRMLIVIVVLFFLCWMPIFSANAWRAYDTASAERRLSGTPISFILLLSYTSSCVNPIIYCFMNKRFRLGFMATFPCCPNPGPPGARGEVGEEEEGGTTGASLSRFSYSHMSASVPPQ
Chain of Neurokinin NK1 (P25103 whole entry): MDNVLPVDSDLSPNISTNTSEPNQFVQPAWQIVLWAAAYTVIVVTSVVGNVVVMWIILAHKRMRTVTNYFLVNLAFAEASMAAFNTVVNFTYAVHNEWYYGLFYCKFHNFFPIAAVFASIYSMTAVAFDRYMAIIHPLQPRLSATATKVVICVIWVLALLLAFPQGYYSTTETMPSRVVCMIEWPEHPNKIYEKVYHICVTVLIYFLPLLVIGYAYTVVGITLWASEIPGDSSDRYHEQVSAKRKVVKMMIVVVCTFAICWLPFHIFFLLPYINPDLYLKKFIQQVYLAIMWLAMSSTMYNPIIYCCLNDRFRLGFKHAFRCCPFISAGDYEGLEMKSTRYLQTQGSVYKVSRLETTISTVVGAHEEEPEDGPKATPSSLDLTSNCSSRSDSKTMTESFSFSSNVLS
Chain of Galanin GAL1 (P47211 whole entry): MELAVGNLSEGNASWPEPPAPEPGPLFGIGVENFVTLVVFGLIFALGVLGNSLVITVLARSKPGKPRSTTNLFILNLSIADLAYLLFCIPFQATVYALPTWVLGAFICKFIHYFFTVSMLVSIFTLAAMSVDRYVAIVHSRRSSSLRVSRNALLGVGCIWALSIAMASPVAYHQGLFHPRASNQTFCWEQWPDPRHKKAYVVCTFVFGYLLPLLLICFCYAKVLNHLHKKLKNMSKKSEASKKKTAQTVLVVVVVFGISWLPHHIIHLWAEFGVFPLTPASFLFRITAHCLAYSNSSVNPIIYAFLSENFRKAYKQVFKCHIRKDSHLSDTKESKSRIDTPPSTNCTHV
T1 sequence (P50052 whole entry): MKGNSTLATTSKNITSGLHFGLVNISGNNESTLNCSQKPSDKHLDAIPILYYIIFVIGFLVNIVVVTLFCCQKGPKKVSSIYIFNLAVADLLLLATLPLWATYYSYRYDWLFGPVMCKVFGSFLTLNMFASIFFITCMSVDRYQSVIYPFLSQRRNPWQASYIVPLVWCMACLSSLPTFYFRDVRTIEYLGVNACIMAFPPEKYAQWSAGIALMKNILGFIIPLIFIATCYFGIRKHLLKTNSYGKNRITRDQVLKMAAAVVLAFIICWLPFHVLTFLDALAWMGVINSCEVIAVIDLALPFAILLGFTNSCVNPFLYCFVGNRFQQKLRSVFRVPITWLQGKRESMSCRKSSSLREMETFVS
T20 sequence (P32239 whole entry): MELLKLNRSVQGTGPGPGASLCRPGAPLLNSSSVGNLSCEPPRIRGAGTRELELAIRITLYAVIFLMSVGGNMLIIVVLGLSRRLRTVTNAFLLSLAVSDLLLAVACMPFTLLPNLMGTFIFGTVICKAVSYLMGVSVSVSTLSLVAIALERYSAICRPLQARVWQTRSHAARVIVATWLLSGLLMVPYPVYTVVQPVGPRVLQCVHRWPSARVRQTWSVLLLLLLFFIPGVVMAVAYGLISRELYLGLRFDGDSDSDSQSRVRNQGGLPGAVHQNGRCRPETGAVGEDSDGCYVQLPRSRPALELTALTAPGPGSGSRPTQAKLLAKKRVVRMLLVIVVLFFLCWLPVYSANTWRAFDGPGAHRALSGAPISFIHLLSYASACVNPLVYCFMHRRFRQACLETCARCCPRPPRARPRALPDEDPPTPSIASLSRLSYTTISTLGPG
T6 sequence (P34972 whole entry): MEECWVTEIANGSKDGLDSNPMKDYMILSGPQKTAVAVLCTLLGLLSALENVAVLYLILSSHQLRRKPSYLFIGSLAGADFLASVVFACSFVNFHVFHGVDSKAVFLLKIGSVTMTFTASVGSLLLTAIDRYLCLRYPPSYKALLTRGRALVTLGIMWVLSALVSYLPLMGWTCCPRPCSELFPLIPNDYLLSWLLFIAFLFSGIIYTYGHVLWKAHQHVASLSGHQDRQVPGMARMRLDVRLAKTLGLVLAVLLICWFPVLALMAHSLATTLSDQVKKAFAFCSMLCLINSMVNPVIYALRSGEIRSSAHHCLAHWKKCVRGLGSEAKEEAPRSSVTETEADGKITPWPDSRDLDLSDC
Chain of Opioid and opioid-like kappa (KOP) (P34975 whole entry): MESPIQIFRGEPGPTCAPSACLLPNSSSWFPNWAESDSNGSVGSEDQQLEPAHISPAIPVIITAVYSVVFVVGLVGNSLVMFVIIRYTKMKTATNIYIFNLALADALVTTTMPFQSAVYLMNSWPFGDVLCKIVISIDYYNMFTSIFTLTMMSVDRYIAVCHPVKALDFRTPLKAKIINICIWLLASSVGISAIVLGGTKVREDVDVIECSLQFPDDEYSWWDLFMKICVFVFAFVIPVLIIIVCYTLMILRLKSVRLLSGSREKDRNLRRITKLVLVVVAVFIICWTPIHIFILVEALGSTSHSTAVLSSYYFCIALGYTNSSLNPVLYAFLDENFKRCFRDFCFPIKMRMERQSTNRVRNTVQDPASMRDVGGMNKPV

% Inhibition (Ca2+ channels Ca2+-L): −19% | inhibition at 10 µM (Angiotensin-II AT2): -18% | inhibition at 10 µM (Serotonin 5-HT3): 6% | inhibition at 10 µM (Galanin GAL1): -16% | inhibition at 10 µM (Melatonin MT1 (ML1A)): 26% | inhibition at 10 µM [1]: -10% | inhibition at 10 µM (Dopamine D4.4): 20% | inhibition at 10 µM (Angiotensin-II AT1): -28% | % Inhibition (K+ channels SKCa): −8% | inhibition at 10 µM (Cannabinoid CB2; CB2, 10 μM, read-out: % Inhibition): -19% | Inhibition % [2]: 26% | % Inhibition (Na+ channels Na+-site 2): 23% | Inhibition % (Purinergic channels P2X): 13% | Inhibition % ([3]; BZD (periph), 10 μM): 42% | inhibition at 10 µM ([3]; BZD (periph), 10 μM, read-out: Inhibition %): > 40% | inhibition at 10 µM (Serotonin 5-HT6): 5% | inhibition at 10 µM (Dopamine D2S): 5% | inhibition at 10 µM (Muscarinic M5; M5, 10 μM, read-out: % Inhibition): 8% | inhibition at 10 µM (Dopamine D3): 11% | inhibition at 10 µM (Serotonin 5-HT2B): -38% | inhibition at 10 µM (Adenosine A2A): -1% | % Inhibition (Adrenergic alpha1): 1% | inhibition at 10 µM (Serotonin 5-HT2C): -9% | inhibition at 10 µM ([4]; PXR receptor binding assay (ligand displacement)): 15% | inhibition at 10 µM (Neurokinin NK1): 17% | % Inhibition [5]: −5% | inhibition at 10 µM (Prostanoid IP (PGI2)): -12% | Inhibition % (GABA Cl- channel): 29% | inhibition at 10 µM [6]: -30% | inhibition at 10 µM (Adrenergic beta2): -5% | Inhibition % (Growth factors PDGF): −15% | % Inhibition (Adrenergic alpha2): −2% | inhibition at 10 µM (Chemokines CCR1): -10% | inhibition at 10 µM (Histamine H1): 0% | inhibition at 10 µM (Galanin GAL2): 1% | inhibition at 10 µM (Endothelin ETB): 4% | inhibition at 10 µM (Endothelin ETA): -3% | inhibition at 10 µM (Prostanoid EP4): 21% | % Inhibition [7]: 38% | Inhibition % (Glutamate PCP): 5% | Inhibition % (GABA): 10% | inhibition at 10 µM (Dopamine D5): -4% | % Inhibition (Somatostatin sst): −8% | inhibition at 10 µM (Neurokinin NK2): -1% | inhibition at 10 µM [8]: -38%
Structure (SMILES): CC(=O)[C@H]1CC[C@H]2[C@@H]3CC=C4C[C@@H](O)CC[C@]4(C)[C@H]3CC[C@]12C [pregnenolone, reference compound]

Structure (SMILES): CC(=O)[C@@]1(C)CC[C@H]2[C@@H]3CC=C4C[C@@H](OCc5ccccc5)CC[C@]4(C)[C@H]3CC[C@@]21C [3Bn17MeP, 3β-benzyloxy, 17α-methyl-pregn-5-en-20-one]
% Inhibition (Ca2+ channels Ca2+-L): 12% | inhibition at 10 µM (Angiotensin-II AT2): -5% | Inhibition % (Serotonin 5-HT3; 10 μM): 4% | inhibition at 10 µM (Galanin GAL1): -26% | inhibition at 10 µM (Melatonin MT1 (ML1A)): -8% | inhibition at 10 µM [1]: -17% | % Inhibition (Dopamine D4.4; 10 μM): −10% | inhibition at 10 µM (Angiotensin-II AT1): -13% | % Inhibition (K+ channels SKCa): −3% | inhibition at 10 µM (Cannabinoid CB2): 2% | Inhibition % [2]: −5% | % Inhibition (Na+ channels Na+-site 2): −12% | Inhibition % (Purinergic channels P2X): 8% | inhibition at 10 µM [3]: 1% | % Inhibition (Serotonin 5-HT6; 10 μM): −1% | % Inhibition (Dopamine D2S; 10 μM): 6% | inhibition at 10 µM (Muscarinic M5): 0% | % Inhibition (Dopamine D3; 10 μM): −2% | % Inhibition (Serotonin 5-HT2B; 10 μM): 16% | inhibition at 10 µM (Adenosine A2A): -6% | % Inhibition (Adrenergic alpha1): 5% | % Inhibition (Serotonin 5-HT2C; 10 μM): 10% | inhibition at 10 µM [4]: -8% | inhibition at 10 µM (Neurokinin NK1): 8% | % Inhibition [5]: −4% | inhibition at 10 µM (Prostanoid IP (PGI2)): 0% | Inhibition % (GABA Cl- channel): 1% | inhibition at 10 µM [6]: 2% | % Inhibition (Adrenergic beta2; 10 μM): −4% | Inhibition % (Growth factors PDGF): −13% | % Inhibition (Adrenergic alpha2): −1% | inhibition at 10 µM (Chemokines CCR1): -13% | inhibition at 10 µM (Histamine H1): 3% | inhibition at 10 µM (Galanin GAL2): -11% | inhibition at 10 µM (Endothelin ETB): -13% | inhibition at 10 µM (Endothelin ETA): 1% | inhibition at 10 µM (Prostanoid EP4): 25% | % Inhibition [7]: −17% | Inhibition % (Glutamate PCP): 5% | Inhibition % (GABA): 10% | % Inhibition (Dopamine D5; 10 μM): −6% | % Inhibition (Somatostatin sst): −6% | inhibition at 10 µM (Neurokinin NK2): -12% | inhibition at 10 µM [8]: -21%
